Here are results for three molecules from patent US7304073B2, “Method of treating myocardial ischemia-reperfusion injury using NF-kB inhibitors” (Wyeth, priority 2004, dated 2007).

“Also recorded” adds a separate entry of the source.

The test system of data set [1] is myocardial ischemia-reperfusion models. Particulars: cited from earlier work.
Data set [2] deals with Adult ovariectomized female Sprague Dawley rats. Put plainly: In vivo rat heart ischemia-reperfusion (left coronary artery occlusion), infarct size. The method, then:
A rat in vivo model was used to evaluate effects of experimental compounds on ischemia-reperfusion in the left ventricle. Adult ovariectomized female Sprague Dawley rats (>6 weeks) were used. All experimental procedures were performed under general anesthesia with a combination of ketamine and xylazine. Rats were placed on a heating pad and ventilated using a rodent ventilator. The chest was clipped free of hair, disinfected with Betadine and rinsed with alcohol. A small incision was made through skin and underlying muscles between 4th and 5th ribs in the left chest. The ribs were gently spread and the heart was exposed. A surgical suture was placed under the left coronary artery. The artery was occluded by tightening the suture for 30 minutes to induce myocardial ischemia and then re-opened for the 2 hour reperfusion period. […] At the end of reperfusion, hearts were harvested, perfused with Evans Blue, sectioned and stained with 2,3,5-triphenyltetrazolium chloride. Each section was digitally imaged. Infarct size and area at risk were measured and statistically analyzed.

A further data set concerns uterus or breast. Description: Activity in the uterus or breast. Particulars: in contrast to the known effects of 17β-estradiol.
Data set [3] relates to perfused isolated male rat hearts. Put plainly: Isolated rat heart ischemia-reperfusion (Langendorff perfusion). The method, then: Male rats 3 months old were anesthetized with sodium-pentobarbital and hearts were removed and mounted on a Langendorff apparatus. In this paradigm isolated hearts were perfused through an aortic cannula with a modified Krebs-Henseleit buffer equilibrated with 95% O2 and 5% CO2 at a constant pressure of 58 mmHg. Hearts were maintained at 37° C. throughout the experiments and temperature was continuously monitored with an IT-18 thermocouple microprobe inserted into the left ventricle (PhysiTemp, Clifton, N.J.). Flow rate was monitored with a flow probe and small animal flow meter (T206) from Transonic Systems Incorporated, Ithaca, N.Y. Hearts were perfused for 5 minutes with no additions followed by perfusion with vehicle or test compound which were continuously perfused throughout the remaining steps of the experiments. After 20 minutes the hearts were exposed to 100 nM isoproterenol for 5 minutes followed by 15 minutes global ischemia which was achieved by turning off the perfusion pump. After ischemia, hearts were reperfused at a constant flow rate for 50 minutes. This flow rate was equivalent to the rate used before ischemia to maintain 58 mmHg.
To assess ischemic damage, the change in left ventricular diastolic pressure was continually monitored using a fluid filled latex balloon inserted into the left ventricle through the left atrium. The diastolic pressure was initially adjusted to 5 mmHg. The pressure signals were recorded with a Grass Polygraph.
The release of creatine kinase (CK) enzyme activity from the hearts was also measured as a marker of cardiac damage. Fractions of perfusate were collected before ischemia and every 5 minutes during reperfusion. CK enzyme activity released from the hearts was determined in the perfusate fractions using CK reagent as recommended by the supplier (Sigma Diagnostics, St. Louis, Mo.).

The test system of data set [4] is Ovariectomized female New Zealand White rabbits. Put plainly: In vivo rabbit heart ischemia-reperfusion (left anterior descending coronary artery occlusion), infarct size. How it is done: Ovariectomized female New Zealand White rabbits were anesthetized with a mixture of xylazine (3 mg/kg) and ketamine (35 mg/kg) administered IM, followed by an IV injection of sodium pentobarbital (15 mg/kg). An endotracheal tube was inserted and animals were positive pressure ventilated with room air. A Millar catheter micro-tip pressure transducer was inserted through the left carotid artery and positioned above the aortic valves to monitor aortic blood pressure. A lead II electrocardiogram was monitored throughout the experiment. A left thoracotomy and pericardiotomy were performed. […] A silk suture was passed behind the left anterior descending coronary artery and secured against polyethylene tubing for 30 minutes (ischemic period). Regional myocardial ischemia was verified by cyanosis in the region of the occluded vessel and by ST-segment elevation like changes in the electrocardiogram. The hearts were then reperfused for 4 hours.
To determine infarct size the heart was removed, cannulated through the aorta and perfused with Krebs-Henseleit buffer followed by perfilsion with 1% triphenyltetrazolium chloride (TTC). The left anterior descending coronary artery was re-occluded with a suture and 0.25% Evans Blue was perfused through the heart. The heart was cut into transverse sections and the area of the left ventricle, area at risk and the infarct area were traced and analyzed using Adobe PhotoShop Software. The infarct size is expressed as a percentage of the area at risk.

[5] abbreviates: 1 uM, isolated rat heart, following ischemia-reperfusion.

On to `C[C@]12CC[C@@H]3c4ccc(O)cc4CC[C@H]3[C@@H]1CC[C@@H]2O` [17β-estradiol], for which the “protection in similar myocardial ischemia-reperfusion models” value in data set [1] is given as “protective”.
For orientation: melting point means the temperature of the solid-liquid transition. On to `CC1c2cc(F)ccc2-c2ccccc2N1S(=O)(=O)c1ccc(O)cc1` (stereo not shown) [Example 3, 4-[(8-Fluoro-6-methylphenanthridin-5(6H)-yl)sulfonyl]phenol], for which the melting point came out at 188 °C. Also, the infarct size in data set [2] (1 mg/kg iv 5 minutes before reperfusion, 30 minutes ischemia, 2 hour reperfusion, Mean±SEM, vehicle 54.6±3.2% / 54.4±4.7%) is 32.6±5.2%. The “effect on ischemia/reperfusion-induced myocardial infarction compared with vehicle” value in data set [2] (1 mg/kg iv, ovariectomized female rats) is listed as “significantly less myocardial infarction; also recorded: cardioprotective activity”. The “activity in the uterus or breast” value in the data set on uterus or breast is “no activity”. In data set [3] (setting [5]), the “effect on increase in left ventricular diastolic pressure in comparison to vehicle” value is recorded as “significantly attenuated; also recorded: cardioprotective activity” and the “effect on left ventricular developed pressure in comparison to vehicle” value is reported as “significantly attenuated; also recorded: cardioprotective activity”. The “release of creatine kinase (CK) activity from hearts following ischemia” value in data set [3] (1 uM, perfusate during reperfusion phase, versus vehicle) is “significantly reduced; also recorded: significant decreases; also recorded: cardioprotective activity”. For the same molecule, the “increase in left ventricular diastolic pressure after ischemia-reperfusion” value in data set [3] (luM of compound, 15 minutes global ischemia, 50 minutes reperfusion, vehicle 29 mmHg) was 11 mmHg. Besides, in data set [4] (1 mg/kg IV 30 minutes before induction of ischemia), the “size of the area at risk relative to the area of the left ventricle” value is “did not have an effect”. For the same molecule, the “effect on infarct size in comparison to vehicle” value in data set [4] (1 mg/kg IV 30 minutes before induction of ischemia, rabbit) is reported as “significantly reduced infarct size; also recorded: cardioprotective activity”. Further, the “infarct size (ischemic area relative to the area at risk)” value in data set [4] (1 mg/kg IV 30 minutes before ischemia, 30 minutes ischemia, 4 hours reperfusion, vehicle 59%) came to 39%.
`COc1cc(OC)cc(N2CCN(C(=O)[C@](C)(C#N)[C@H](c3ccccc3OC)c3cccc4ccccc34)CC2)c1` [Example 4, (S)-3-[4-(3,5-dimethoxyphenyl)piperazin-1-yl]-2-[(S)-(2-methoxyphenyl)(1-naphthyl)methyl]-2-methyl-3-oxopropanenitrile] registered a melting point of 186 to 188 °C.
